The assay relates to L1210 leukemia ip in BDF1 mice, survival T/C. The assay is described as follows: NCI In Vivo Anticancer Drug Screen. Data for tumor model L1210 Leukemia (intraperitoneal) in B6D2F1 (BDF1) mice. The following applies: higher = longer survival. The essentials: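 Each compound was tested against a transplantable tumor grown in mice. The endpoint was survival, with treated animals benchmarked against vehicle controls as a simple ratio.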

[1] abbreviates: endpoint: mean survival time, dose: 25.0 mg/kg/injection, schedule: Q04DX003 (ip), vehicle: saline.
[2] abbreviates: endpoint: mean survival time, dose: 50.0 mg/kg/injection, schedule: Q04DX003 (ip), vehicle: saline.
Where [3] appears, read: endpoint: mean survival time, dose: 100.0 mg/kg/injection, schedule: Q01DX001 (ip), vehicle: saline.
The mark [4] stands for this setting: endpoint: mean survival time, dose: 100.0 mg/kg/injection, schedule: Q04DX003 (ip), vehicle: saline.
The mark [5] stands for this setting: endpoint: mean survival time, dose: 200.0 mg/kg/injection, schedule: Q01DX001 (ip), vehicle: saline.
The mark [6] stands for this setting: endpoint: mean survival time, dose: 200.0 mg/kg/injection, schedule: Q04DX003 (ip), vehicle: saline.
Setting [7] is: endpoint: mean survival time, dose: 400.0 mg/kg/injection, schedule: Q01DX001 (ip), vehicle: saline.
Where [8] appears, read: endpoint: mean survival time, dose: 400.0 mg/kg/injection, schedule: Q04DX003 (ip), vehicle: saline.
[9] abbreviates: endpoint: mean survival time, dose: 100.0 mg/kg/injection, schedule: Q04DX003 (ip), vehicle: saline with Tween-80.
Where [10] appears, read: endpoint: mean survival time, dose: 200.0 mg/kg/injection, schedule: Q04DX003 (ip), vehicle: saline with Tween-80.
The mark [11] stands for this setting: endpoint: mean survival time, dose: 400.0 mg/kg/injection, schedule: Q04DX003 (ip), vehicle: saline with Tween-80.

Molecules are shown by their SMILES. “And” between values parts separate entries of the source, which are not always exact repeats. Identical values can stand only once. Toxic doses and inconclusive results are not listed.

`CN(CCO)/N=N/c1[nH]ncc1C(N)=O`: the T/C runs as follows: (endpoint: mean survival time, dose: 54.0 mg/kg/injection, schedule: Q01DX009 (ip), vehicle: other) 124 % of control; (endpoint: mean survival time, dose: 176.0 mg/kg/injection, schedule: Q01DX009 (ip), vehicle: other) 159 % of control; (endpoint: mean survival time, dose: 345.0 mg/kg/injection, schedule: Q01DX009 (ip), vehicle: saline with Tween-80) 163 % of control; (endpoint: mean survival time, dose: 400.0 mg/kg/injection, schedule: Q01DX009 (ip), vehicle: other) 159 % of control; (endpoint: mean survival time, dose: 472.25 mg/kg/injection, schedule: Q01DX001 (ip), vehicle: saline with Tween-80) 109 % of control; (endpoint: mean survival time, dose: 600.0 mg/kg/injection, schedule: Q01DX009 (ip), vehicle: other) 189 % of control. In addition, the T/C by setting is: (endpoint: mean survival time, dose: 690.0 mg/kg/injection, schedule: Q01DX009 (ip), vehicle: saline with Tween-80) 192 % of control; (endpoint: mean survival time, dose: 900.0 mg/kg/injection, schedule: Q01DX009 (ip), vehicle: other) 196 % of control; (endpoint: mean survival time, dose: 944.5 mg/kg/injection, schedule: Q01DX001 (ip), vehicle: saline with Tween-80) 119 % of control; (endpoint: median survival time, dose: 63.0 mg/kg/injection, schedule: Q01DX009 (ip), vehicle: saline) 119 % of control; (endpoint: median survival time, dose: 250.0 mg/kg/injection, schedule: Q01DX009 (ip), vehicle: saline) 156 % of control; (endpoint: median survival time, dose: 500.0 mg/kg/injection, schedule: Q01DX009 (ip), vehicle: saline) 173 % of control. Further, the T/C (endpoint: median survival time, dose: 1000.0 mg/kg/injection, schedule: Q01DX009 (ip), vehicle: saline) was 201 % of control.

In the case of `CC(=O)c1ccc2c(c1)Cc1ccccc1-2`, the T/C runs as follows: under setting [1], 105 % of control; under setting [2], 95 % of control; under setting [3], 90 % of control; under setting [4], 101 % of control; under setting [5], 90 % of control; under setting [6], 96 % of control. Besides, the T/C under setting [7] is 90 % of control and the T/C under setting [8] was 91 % of control.

As to `O=C(O)c1ccc(/C=N/N=C2c3ccccc3-c3ccccc32)cc1`, the T/C by setting is: (endpoint: mean survival time, dose: 75.0 mg/kg/injection, schedule: Q01DX001 (ip), vehicle: other) 91 % of control; (endpoint: mean survival time, dose: 150.0 mg/kg/injection, schedule: Q01DX001 (ip), vehicle: other) 86 % of control; (endpoint: mean survival time, dose: 300.0 mg/kg/injection, schedule: Q01DX001 (ip), vehicle: other) 95 % of control.

With `COc1ccc(-c2coc3cc(O)ccc3c2=O)cc1`, the T/C is, setting by setting: under setting [9], 96 % of control; under setting [10], 96 % of control; under setting [11], 96 % of control.

On to `COc1ccc2c(c1)c(CC(=O)O)c(C)n2C(=O)c1ccc(Cl)cc1`, for which the T/C by setting is: (endpoint: mean survival time, dose: 50.0 mg/kg/injection, schedule: Q01DX001 (ip), vehicle: saline) 88 % of control; under setting [3], 95 % of control; under setting [5], 95 % of control; under setting [7], 93 % of control.

With `O=C(Nc1ccc(O)cc1)Nc1cccc(C(F)(F)F)c1`, the T/C was 103 % of control (endpoint: mean survival time, dose: 100.0 mg/kg/injection, schedule: Q01DX009 (ip), vehicle: gum acacia); 106 % of control (endpoint: mean survival time, dose: 200.0 mg/kg/injection, schedule: Q01DX009 (ip), vehicle: gum acacia); 100 % of control (endpoint: mean survival time, dose: 400.0 mg/kg/injection, schedule: Q01DX009 (ip), vehicle: gum acacia).

In the case of `CC/C=C(CC)/C(CC)=C(/C#N)CC`, the T/C by setting is: under setting [4], 108 % of control; under setting [6], 93 % of control; under setting [8], 98 % of control.

For the compound `c1nc([N+]23CCC(CC2)CC3)c2[nH]cnc2n1`, the T/C was 111 % of control (endpoint: mean survival time, dose: 5.0 mg/kg/injection, schedule: Q01DX001 (ip), vehicle: saline); 103 % of control (endpoint: mean survival time, dose: 10.0 mg/kg/injection, schedule: Q01DX001 (ip), vehicle: saline); 113 % of control (endpoint: mean survival time, dose: 20.0 mg/kg/injection, schedule: Q01DX001 (ip), vehicle: saline); 97 % of control (endpoint: mean survival time, dose: 40.0 mg/kg/injection, schedule: Q01DX001 (ip), vehicle: saline); 108 % of control (endpoint: mean survival time, dose: 80.0 mg/kg/injection, schedule: Q01DX001 (ip), vehicle: saline).

For `CCCCCCCCCCOC(=O)N1C(=O)NC(=O)C1c1ccccc1` (configuration not stated), the T/C is 104 % of control (endpoint: mean survival time, dose: 100.0 mg/kg/injection, schedule: Q01DX009 (ip), vehicle: Klucel (hydroxypropylcellulose) (HPC)); 103 % of control (endpoint: mean survival time, dose: 100.0 mg/kg/injection, schedule: Q04DX003 (ip), vehicle: Klucel (hydroxypropylcellulose) (HPC)); 104 % of control (endpoint: mean survival time, dose: 200.0 mg/kg/injection, schedule: Q01DX009 (ip), vehicle: Klucel (hydroxypropylcellulose) (HPC)); 97 % of control (endpoint: mean survival time, dose: 200.0 mg/kg/injection, schedule: Q04DX003 (ip), vehicle: Klucel (hydroxypropylcellulose) (HPC)); 96 % of control (endpoint: mean survival time, dose: 400.0 mg/kg/injection, schedule: Q01DX009 (ip), vehicle: Klucel (hydroxypropylcellulose) (HPC)); 93 % of control (endpoint: mean survival time, dose: 400.0 mg/kg/injection, schedule: Q04DX003 (ip), vehicle: Klucel (hydroxypropylcellulose) (HPC)).

Take `CN=C(N)C(C)Cl` (configuration not stated): the T/C was 106 % of control (endpoint: mean survival time, dose: 100.0 mg/kg/injection, schedule: Q04DX002 (ip), vehicle: saline); 103 % of control (endpoint: mean survival time, dose: 200.0 mg/kg/injection, schedule: Q04DX002 (ip), vehicle: saline); 103 % of control (endpoint: mean survival time, dose: 400.0 mg/kg/injection, schedule: Q04DX002 (ip), vehicle: saline).

Take `CS(=O)c1ncc2cnccn12` (configuration not stated): the T/C by setting is: (endpoint: mean survival time, dose: 25.0 mg/kg/injection, schedule: Q01DX009 (ip), vehicle: water) 100 % of control; under setting [1], 107 % of control; (endpoint: mean survival time, dose: 50.0 mg/kg/injection, schedule: Q01DX009 (ip), vehicle: water) 99 % of control; under setting [2], 113 % of control; (endpoint: mean survival time, dose: 100.0 mg/kg/injection, schedule: Q01DX009 (ip), vehicle: water) 102 % of control and 103 % of control; under setting [4], 107 % of control. Besides, the T/C is, setting by setting: (endpoint: mean survival time, dose: 100.0 mg/kg/injection, schedule: Q04DX003 (ip), vehicle: water) 110 % of control; (endpoint: mean survival time, dose: 200.0 mg/kg/injection, schedule: Q01DX009 (ip), vehicle: water) 98 % of control.

`O=[N+]([O-])c1ccc(-c2ccc(Br)cc2)cc1`: the T/C was 100 % of control (endpoint: mean survival time, dose: 100.0 mg/kg/injection, schedule: Q01DX009 (ip), vehicle: saline with Tween-80); 101 % of control under setting [9]; 86 % of control (endpoint: mean survival time, dose: 200.0 mg/kg/injection, schedule: Q01DX009 (ip), vehicle: saline with Tween-80); 94 % of control under setting [10]; 103 % of control under setting [11].

Consider `Nc1ccn(C2CC(O)C(CO)O2)c(=O)n1` (configuration not stated), for which the T/C (endpoint: median survival time, dose: 75.0 mg/kg/injection, schedule: Q01DX001 (ip), vehicle: other) was 100 % of control and 101 % of control; the T/C (endpoint: median survival time, dose: 150.0 mg/kg/injection, schedule: Q01DX001 (ip), vehicle: other) was 99 % of control and 100 % of control.

Turning to `O=C(O)C(Br)Cc1cnc[nH]1` (configuration not stated), the T/C (endpoint: mean survival time, dose: 50.0 mg/kg/injection, schedule: Q01DX009 (ip), vehicle: saline) was 106 % of control; the T/C (endpoint: mean survival time, dose: 100.0 mg/kg/injection, schedule: Q01DX009 (ip), vehicle: saline) is 106 % of control; the T/C (endpoint: mean survival time, dose: 200.0 mg/kg/injection, schedule: Q01DX009 (ip), vehicle: saline) is 98 % of control.

Consider `S=c1ssc2ccccc12`, for which the T/C is 100 % of control under setting [2]; 94 % of control and 96 % of control under setting [3]; 97 % of control under setting [4]; 94 % of control and 101 % of control under setting [5]; 97 % of control under setting [6]; 98 % of control under setting [7].

Regarding `COC(=O)/C=C\C(=O)O`, the T/C runs as follows: under setting [4], 88 % of control; under setting [6], 88 % of control.

For the compound `O=C(C[N+]12CC=C(CO)C1C(O)CC2)c1ccc(Br)cc1` (configuration not stated), the T/C was 104 % of control under setting [3] and 101 % of control under setting [5].

For the compound `Cc1ccc(S(=O)(=O)NC(=O)OC/C=C/c2ccccc2)cc1`, the T/C (endpoint: mean survival time, dose: 100.0 mg/kg/injection, schedule: Q01DX009 (ip), vehicle: alcohol) is 96 % of control; the T/C (endpoint: mean survival time, dose: 200.0 mg/kg/injection, schedule: Q01DX009 (ip), vehicle: alcohol) was 94 % of control; the T/C (endpoint: mean survival time, dose: 400.0 mg/kg/injection, schedule: Q01DX009 (ip), vehicle: alcohol) is 110 % of control.

These data come from PubChem BioAssay AID248 (DTP/NCI, 2004).
